Source: PMC11321617 (Advanced Science, 2024)
≈ marks a conversion by molar mass, not a printed value. Bridge positions count the residues as written; N and C are the ends. Square brackets hold non-standard residues; d marks the D form. Peptide text beside a SMILES is read from it. * marks the point of attachment. X1 = CC[C@H](C)CCCCC(=O)*; Dab = NCC[C@H](N)C(=O)O

What was measured:
[1] = tested on: Salmonella typhimurium SL1344; assay: MIC assay (microplate broth dilution); format: cell-based; details: Salmonella enterica, 18 h
Procedure: (§1) The MICs of the peptides were determined using the microplate broth dilution method.^[ [32] ^] The bacteria in the mid‐log phase were diluted to 5 × 10^5 colony forming units (CFU) mL^−1 in TSB. 100 µL of serially diluted peptide solution and 100 µL of diluted bacteria were put to a sterile 96‐well plate.

[2] = tested on: Enterococcus faecalis 4P‐SA; assay: microbe, parasite or virus in culture; format: cell-based; details: broth dilution, TSB, 5 × 10^5 CFU mL^−1, 18 h, 37 °C
Procedure: as §1

[3] = tested on: Enterococcus faecalis ATCC51299; assay: microbe, parasite or virus in culture; format: cell-based; details: ATCC51299, 18 h
Procedure: as §1

Klebsiella pneumoniae K7 = assay: microbe, parasite or virus in culture; format: cell-based; details: broth dilution, TSB, 5 × 10^5 CFU mL^−1, 18 h, 37 °C
Procedure: as §1

[4] = tested on: Methicillin‐Resistant Staphylococcus aureus USA300; assay: microbe, parasite or virus in culture; format: cell-based; details: broth dilution, TSB, 5 × 10^5 CFU mL^−1, 18 h, 37 °C, MRSA USA300
Procedure: as §1

[5] = tested on: Pseudomonas aeruginosa ATCC 27853; assay: microbe, parasite or virus in culture; format: cell-based; details: ATCC27853, broth dilution, TSB, 5 × 10^5 CFU mL^−1, 18 h, 37 °C
Procedure: as §1

[6] = tested on: Salmonella pullorum ATCC19945; assay: microbe, parasite or virus in culture; format: cell-based; details: Salmonella enterica, broth dilution, TSB, 5 × 10^5 CFU mL^−1, 18 h, 37 °C
Procedure: as §1

[7] = tested on: Staphylococcus aureus ATCC25904; assay: microbe, parasite or virus in culture; format: cell-based; details: broth dilution, TSB, 5 × 10^5 CFU mL^−1, 18 h, 37 °C
Procedure: as §1

[8] = tested on: Staphylococcus aureus ATCC25923; assay: microbe, parasite or virus in culture; format: cell-based; details: broth dilution, TSB, 5 × 10^5 CFU mL^−1, 18 h, 37 °C
Procedure: as §1

[9] = tested on: Staphylococcus aureus ATCC29213; assay: microbe, parasite or virus in culture; format: cell-based; details: broth dilution, TSB, 5 × 10^5 CFU mL^−1, 18 h, 37 °C
Procedure: as §1

[10] = tested on: Staphylococcus epidermidis YYF‐771; assay: microbe, parasite or virus in culture; format: cell-based; details: broth dilution, TSB, 5 × 10^5 CFU mL^−1, 18 h, 37 °C
Procedure: as §1

Bacillus subtilis BL‐4 = assay: microbe, parasite or virus in culture; details: 18 h
Procedure: as §1

[11] = tested on: Listeria monocytogenes 10403S; assay: microbe, parasite or virus in culture; details: 18 h
Procedure: as §1

[12] = tested on: Listeria monocytogenes ATCC19115; assay: microbe, parasite or virus in culture; details: ATCC19115, 18 h
Procedure: as §1

[13] = tested on: Listeria monocytogenes EGD; assay: microbe, parasite or virus in culture; details: 18 h
Procedure: as §1

Escherichia coli O157:H7 = format: cell-based; details: broth dilution, TSB, 5 × 10^5 CFU mL^−1, 18 h, 37 °C
Procedure: as §1

E. coli O157:H7 = assay: Time‐kill kinetics; format: cell-based, Escherichia coli; details: 4 × MIC, 1 × 10^5 CFU mL^−1 E. coli O157:H7, 37 °C; n = 3
Procedure: During the logarithmic growth phase, 1 × 10^5 CFU mL^−1 of E. coli O157:H7 was diluted in 1 mL, the peptides were incubated with the bacterial solution for several intervals.^[ [42] ^] The solution was diluted to a suitable ratio and evenly distributed across the TSB agar plates. Before being counted, colonies were cultured for one night at 37 °C.

[14] = tested on: persisters induced from E. coli; assay: Bactericidal activity against persisters; format: cell-based, Escherichia coli; details: colistin at 4 × MIC (25 µmol L^−1), 24 h; rifampicin‐induced E. coli persisters; n = 3
Procedure: Previously recognized and widely used procedures for developing persisters. The bacterial cells, with a turbidity of 0.8 at 600 nm, were obtained in the mid‐log phase. The culture was cultured at 37 °C for 30 min after 100 µg mL^−1 rifampicin (Macklin, Shanghai, China) was added. The rifampicin‐treated culture was centrifuged, and the pellet was resuspended in TSB containing ampicillin (final concentration: 300 µg mL^−1; Macklin, Shanghai, China) to remove nonpersister cells. […] Then cultured for 24 h, spotted on TSB agar, and incubated overnight at 37 °C.

[15] = tested on: diabetic wound infections; details: cecropin ref 27b, SCIBIOIII ref 28, QHREDGS ref 29, LL‐37 ref 30; cited from earlier work
Excerpt: A significant concern in diabetic wound infections is the complexity of mixed bacterial infections, contributing to prolonged wound healing times, extended periods of inflammation, and a heightened risk of ulcer recurrence.^[ [26] ^] Naturally, an ointment that eliminates these microorganisms holds enormous promise for treating diabetes patients who have recurring infections and preventing the development of antibiotic resistance and transmission. According to earlier research, this CaAGE hydrogel basis was ideal for the AMPs.^[ [27] ^] in terms of the stability, release profile, and antibacte ...

[16] = tested on: drug‐resistant Gram‐positive bacterial infections; details: cited from earlier work
Excerpt: Conventional screening methods have been unsuccessful in discovering new antibiotics in recent years.^[ [16] ^] Traditional screening sources seem overexploited and tend to produce compounds that are already known. However, uncultured bacteria represent a significant and untapped reservoir of novel natural product frameworks.^[ [17] ^] […] In the context of this ...

Molecule: CC1(C)S[C@@H]2[C@H](NC(=O)[C@H](N)c3ccccc3)C(=O)N2[C@H]1C(=O)O [ampicillin, Ampicillin]
- MIC [1]: 12.5 µM (≈ 4.37 µg/mL)
- MIC [2]: > 71.6 µM
- MIC [3]: 12.5 µM (≈ 4.37 µg/mL)
- MIC (Klebsiella pneumoniae K7): > 71.6 µM
- MIC [4]: 71.6 µM (≈ 25 µg/mL)
- MIC [5]: > 71.6 µM
- MIC [6]: 35.8 µM (≈ 12.5 µg/mL)
- MIC [7]: > 71.6 µM
- MIC [8]: 1.57 µM (≈ 0.549 µg/mL)
- MIC [9]: 1.57 µM (≈ 0.549 µg/mL)
- MIC [10]: 1.57 µM (≈ 0.549 µg/mL)
- MIC (Bacillus subtilis BL‐4): 1.57 µM (≈ 0.549 µg/mL)
- MIC [11]: 25 µM (≈ 8.74 µg/mL)
- MIC [12]: 6.25 µM (≈ 2.18 µg/mL)
- MIC [13]: 4.5 µM (≈ 1.57 µg/mL)

Molecule: CC[C@H](C)CCCCC(=O)N[C@@H](CCN)C(=O)N[C@H](C(=O)N[C@@H](CCN)C(=O)N[C@H]1CCNC(=O)[C@H]([C@@H](C)O)NC(=O)[C@H](CCN)NC(=O)[C@H](CCN)NC(=O)[C@H](CC(C)C)NC(=O)[C@@H](CC(C)C)NC(=O)[C@H](CCN)NC1=O)[C@@H](C)O [colistin, Colistin] (X1-[Dab]T[Dab][Dab][Dab][dL]L[Dab][Dab]T; lactam 4-C (inferred); N-terminus assumed)
- MIC (Escherichia coli O157:H7): 3.13 µM (≈ 3.66 µg/mL)
- time to eradicate all E. coli cells (E. coli O157:H7): 2 h
- effect on persisters [14]: had little effect on the survival

Molecule: LL‐37
- bacterial count reduction / wound healing in diabetic wound infections [15]: none of these peptides demonstrated the capacity to significantly reduce bacterial counts by ≈3‐log or expedite wound healing within a 10‐day timeframe

Molecule: QHREDGS [AMP researched for diabetic wound infections]
- bacterial count reduction / wound healing in diabetic wound infections [15]: none of these peptides demonstrated the capacity to significantly reduce bacterial counts by ≈3‐log or expedite wound healing within a 10‐day timeframe

Molecule: cecropin
- bacterial count reduction / wound healing in diabetic wound infections [15]: none of these peptides demonstrated the capacity to significantly reduce bacterial counts by ≈3‐log or expedite wound healing within a 10‐day timeframe

Molecule: clovibactin
- efficacy [16]: effectively controlling drug‐resistant Gram‐positive bacterial infections
